From patent publication US20230265037A1, “METHOD FOR MAN[…] CALCIUM CITRATE BY USING SHELL AND APPLICATION THEREOF” (KOREA RESEARCH INSTITUTE OF CHEMICAL TECHNOLOGY, priority 2020, published 2023)
Values joined by “and” are separate entries in the source; they are usually repeats but may differ in a detail not shown here. Identical values can stand only once.

Experiment: Fluorine removal experiment (residual fluorine concentration of filtrate by ion concentration meter)
Details: for removal rate: HF solution 1,000 ppm (experimental value 970 ppm), reacted 30 minutes
Description: In order to confirm the fluorine removal rate using the powder or solution prepared in Examples 1 to 3, a fluorine removal experiment was performed by the following method, and the residual fluorine concentration of the filtrate remaining after the experiment was measured using an ion concentration meter and is shown in Tables 2 to 4. At this time, a Metrohm 930 compact IC Flex model from Metrohm was used as the ion concentration meter.
A 50% hydrofluoric acid (HF) solution with a concentration of 1,000 ppm was prepared, and so that the molar ratio of calcium ion:fluoride ion is 1:2, 2:2, 10.56 g and 21.12 g of the mono calcium citrate powder recovered in Example 1 were mixed with 1 L of water to make a solution, the hydrofluoric acid and the solution were reacted for 30 minutes, and the results are shown in Table 2.
A 50% hydrofluoric acid (HF) solution with a concentration of 1,000 ppm was prepared, 4.75 g, 9.5 g, and 19.1 g of the tricalcium citrate powder recovered in Example 2 were mixed with 1 L of water so that the molar ratio of calcium ion:fluoride ion was 1:2, 2:2, and 4:2 to form a slurry, the hydrofluoric acid and the slurry were reacted for 30 minutes, and the results are shown in Table 3. (Tricalcium citrate (C12H10Ca3O14) contains 3 moles of calcium ions per mole, so ⅓ of the theoretical amount is added.)
A 50% hydrofluoric acid (HF) solution with a concentration of 1,000 ppm was prepared, the solution in which the shells and citric acid were dissolved prepared in Example 3 was mixed with 1 L of water and reacted for 30 minutes, and the results are shown in Table 4.

[1] = molar ratio calcium ion:fluoride ion 1:2
[2] = molar ratio calcium ion:fluoride ion 2:2

| Compound | removal rate [1] | removal rate [2] | fluorine removal rate (summary) (summary of Tables 2 and 3) | removal rate (molar ratio calcium ion:fluoride ion 4:2) |
| --- | --- | --- | --- | --- |
| O=C([O-])CC(O)(CC(=O)O)C(=O)O.O=C([O-])CC(O)(CC(=O)O)C(=O)O.[Ca+2] [Example 1, mono calcium citrate] | 99.25% | 99.77% | ≥ 99% |  |
| O=C([O-])CC(O)(CC(=O)[O-])C(=O)[O-].O=C([O-])CC(O)(CC(=O)[O-])C(=O)[O-].[Ca+2].[Ca+2].[Ca+2] [Example 2, tricalcium citrate] | 97.63% | 98.33% |  | 98.28% and 98.29% |
